Laboratory results: US20230158025A1 (UNIVERSITY OF UTAH RESEARCH FOUNDATION, priority 2020, published 2023)
Like-named read-outs stand apart in the source and are kept apart here.

Columns and labels:
recombinant human GALK1 = recombinant human GALK1 (Homo sapiens, UniProt P51570); test: hGALK1 biochemical activity assay (Kinase-Glo Plus, ATP depletion)
Method in brief: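 Recombinant human or mouse GALK1 (5 nM, with 100 μM galactose, in the added enzyme solution) was run with ATP (35 μM in the substrate solution) in HEPES pH 8.0 buffer. Compounds were tested at 11 1/3-step concentrations from 57.4 μM to 0.97 nM. After 1 h at room temperature, remaining ATP was read by Kinase-Glo Plus luminescence.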

recombinant mouse GALK1 = recombinant mouse GALK1 (Mus musculus, UniProt Q9R0N0); test: mGALK1 biochemical activity assay (Kinase-Glo Plus, ATP depletion)
recombinant mouse GALK1, sequence (Q9R0N0 whole entry): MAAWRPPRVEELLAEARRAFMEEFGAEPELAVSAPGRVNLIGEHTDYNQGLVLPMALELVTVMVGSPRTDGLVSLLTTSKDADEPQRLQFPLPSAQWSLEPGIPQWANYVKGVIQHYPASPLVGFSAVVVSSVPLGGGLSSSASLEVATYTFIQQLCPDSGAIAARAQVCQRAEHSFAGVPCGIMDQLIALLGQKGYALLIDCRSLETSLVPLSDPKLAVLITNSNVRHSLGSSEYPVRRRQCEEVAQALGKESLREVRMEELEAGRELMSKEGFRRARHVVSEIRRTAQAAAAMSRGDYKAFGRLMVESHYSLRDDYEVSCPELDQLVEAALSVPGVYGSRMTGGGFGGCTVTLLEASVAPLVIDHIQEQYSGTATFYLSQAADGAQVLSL
Method in brief: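 Recombinant GALK1 (5 nM) with 100 μM galactose; GALK1 turnover read as ATP depletion by Kinase-Glo Plus luminescence. Reaction ran 1 h at room temperature before detection reagent was added.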

[1] = rat microsomal stability (RLM)
[2] = aqueous kinetic solubility
[3] = Tables 2-15, 35 μM ATP, 100 μM galactose, 1 h, bracketed figure after some values (e.g. −1.2) is undefined and not reported, read-out: hGALK IC50
[4] = recombinant human GALK1, Kinase-Glo Plus ATP depletion, read-out: hGALK
[5] = Tables 2-15, 35 μM ATP, 100 μM galactose, 1 h, bracketed figure after some values is undefined and not reported, read-out: mGALK IC50
[6] = recombinant mouse GALK1, Kinase-Glo Plus ATP depletion, read-out: mGALK

recombinant human GALK1, sequence (P51570 whole entry): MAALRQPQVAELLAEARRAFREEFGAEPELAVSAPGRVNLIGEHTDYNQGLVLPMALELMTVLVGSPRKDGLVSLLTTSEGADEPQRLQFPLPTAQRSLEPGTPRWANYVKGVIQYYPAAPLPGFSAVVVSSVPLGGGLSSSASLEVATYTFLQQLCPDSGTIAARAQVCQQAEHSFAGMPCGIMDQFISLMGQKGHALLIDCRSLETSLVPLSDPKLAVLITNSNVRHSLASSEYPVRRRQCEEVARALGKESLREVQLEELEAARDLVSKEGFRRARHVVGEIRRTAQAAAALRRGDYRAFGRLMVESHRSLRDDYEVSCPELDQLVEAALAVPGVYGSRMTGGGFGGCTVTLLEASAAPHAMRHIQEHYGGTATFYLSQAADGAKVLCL

Row | SMILES | IC50 (recombinant human GALK1; [3]) [nM] | IC50 (recombinant human GALK1; [4]) [nM] | IC50 (recombinant mouse GALK1; [5]) [nM] | IC50 (recombinant mouse GALK1; [6]) [nM] | Metab. Stabil. (m) ([1]; microsomal half-life) | Sol. [2] [µg/mL] | Perm. (1 × 10^−6 cm/sec) (PAMPA permeability) | Metab. Stabil. (m) ([1]; microsomal stability half-life) | Sol. ([2]; aqueous kinetic solubility) [µg/mL] | Perm. (1 × 10^−6 cm/sec) (PAMPA permeability; PAMPA)
1 | CC1=C(C(=O)NCc2c(C)nn(C)c2C)C(c2ccc(C)cc2Cl)N=C(Nc2nc3cccc(N)c3o2)N1 (stereo not drawn) [Compound 113, 2-((7-aminobenzo[d]oxazol-2-yl)amino)-4-(2-chloro-4-methylphenyl)-6-methyl-N-((1,3,5-trimethyl-1H-pyrazol-4-yl)methyl)-1,4-dihydropyrimidine-5-carboxamide] | 1220 | 1220 | 6850 | 6850 | 2.369 | 12.0 | 127.92 1 × 10^−6 cm/sec |  |  | 
2 | CC1=C(C(=O)NCc2cnn(Cc3ccccc3)c2)C(c2ccc(C)cc2Cl)N=C(Nc2nc3cccc(N)c3o2)N1 (stereo not drawn) [Compound 114, 2-((7-aminobenzo[d]oxazol-2-yl)amino)-N-((1-benzyl-1H-pyrazol-4-yl)methyl)-4-(2-chloro-4-methylphenyl)-6-methyl-1,4-dihydropyrimidine-5-carboxamide] | 390 | 390 | 5440 | 5440 | 6.732 | <1 | 103.8 1 × 10^−6 cm/sec |  |  | 
3 | CC1=C(C(=O)NCc2cnn(C)c2)[C@H](c2ccc(C)cc2Cl)N=C(Nc2nc3cccc(N)c3o2)N1 [Compound 115, (R)-2-((7-aminobenzo[d]oxazol-2-yl)amino)-4-(2-chloro-4-methylphenyl)-6-methyl-N-((1-methyl-1H-pyrazol-4-yl)methyl)-1,4-dihydropyrimidine-5-carboxamide] |  | 130 |  | 1580 | 18.91 | 17.14 | 416.8 1 × 10^−6 cm/sec |  |  | 
4 | CC1=C(C(=O)NCc2cnn(C)c2)[C@@H](c2ccc(C)cc2Cl)N=C(Nc2nc3cccc(N)c3o2)N1 [Compound 116, (S)-2-((7-aminobenzo[d]oxazol-2-yl)amino)-4-(2-chloro-4-methylphenyl)-6-methyl-N-((1-methyl-1H-pyrazol-4-yl)methyl)-1,4-dihydropyrimidine-5-carboxamide] |  | 12200 |  | 30600 | 7.868 | 21.9 | 326.9 1 × 10^−6 cm/sec |  |  | 
5 | CCn1cc(CNC(=O)C2=C(C)NC(Nc3nc4cccc(N)c4o3)=NC2c2ccc(C)cc2Cl)cn1 (stereo not drawn) [Compound 117, 2-((7-aminobenzo[d]oxazol-2-yl)amino)-4-(2-chloro-4-methylphenyl)-6-methyl-N-((1-ethyl-1H-pyrazol-4-yl)methyl)-1,4-dihydropyrimidine-5-carboxamide] |  | 170 | 3060 |  | 11.3 | 2.43 | 360.4 1 × 10^−6 cm/sec |  |  | 
6 | CC1=C(C(=O)NCc2cnn(C)c2)C(c2ccc(F)cc2Cl)N=C(Nc2nc3cccc(N)c3o2)N1 (stereo not drawn) [Compound 119, 2-((7-aminobenzo[d]oxazol-2-yl)amino)-4-(2-chloro-4-fluorophenyl)-N-((1-methyl-1H-pyrazol-4-yl)methyl)-6-methyl-1,4-dihydropyrimidine-5-carboxamide] |  | 680 |  | 6850 |  |  |  | 29.59 | 49.6 | 17.14 1 × 10^−6 cm/sec
7 | CCn1cc(CNC(=O)C2=C(C)NC(Nc3nc4cccc(N)c4o3)=NC2c2ccc(Cl)cc2Cl)cn1 (stereo not drawn) [Compound 120, 2-((7-aminobenzo[d]oxazol-2-yl)amino)-4-(2,4-dichlorophenyl)-N-((1-ethyl-1H-pyrazol-4-yl)methyl)-6-methyl-1,4-dihydropyrimidine-5-carboxamide] |  | 480 |  | 8630 |  |  |  | 14.14 | 4.6 | 289.5 1 × 10^−6 cm/sec
8 | CC1=C(C(=O)NCc2cnn(C)c2)C(c2ccc(Cl)cc2Cl)N=C(Nc2nc3cccc(N)c3o2)N1 (stereo not drawn) [Compound 123, 2-((7-aminobenzo[d]oxazol-2-yl)amino)-4-(2,4-dichlorophenyl)-N-((1-methyl-1H-pyrazol-4-yl)methyl)-6-methyl-1,4-dihydropyrimidine-5-carboxamide] |  | 1090 |  | 6850 |  |  |  | 17.76 | 15.63 | 142.4 1 × 10^−6 cm/sec
9 | CC1=C(C(=O)NCc2cnn(C)c2C)C(c2ccc(C)cc2Cl)N=C(Nc2nc3ccc(F)cc3o2)N1 (stereo not drawn) [Compound 124] | 490 | 490 | 3430 | 3430 |  |  |  | 2.993 | <1 | 460.2 1 × 10^−6 cm/sec
10 | CC1=C(C(=O)NCc2cnn(C)c2)C(c2ccc(Cl)cc2Cl)N=C(Nc2nc3ccc(F)c(N)c3o2)N1 (stereo not drawn) [Compound 127, 2-((7-amino-6-fluorobenzo[d]oxazol-2-yl)amino)-4-(2,4-dichlorophenyl)-6-methyl-N-((1-methyl-1H-pyrazol-4-yl)methyl)-1,4-dihydropyrimidine-5-carboxamide] |  | 220 |  | 1930 |  |  |  | >30 | 5.9 | 166.7 1 × 10^−6 cm/sec
11 | CC1=C(C(=O)NCc2cnn(C)c2)C(c2ccc(C)cc2Cl)N=C(Nc2nc3ccc(F)c(C(=O)O)c3o2)N1 (stereo not drawn) [Compound 128, 2-((4-(2-chloro-4-methylphenyl)-6-methyl-5-(((1-methyl-1H-pyrazol-4-yl)methyl)carbamoyl)-1,4-dihydropyrimidin-2-yl)amino)-6-fluorobenzo[d]oxazole-7-carboxylic acid] |  | 17200 |  | 21700 |  |  |  | >30 | 26.3 | <1 1 × 10^−6 cm/sec
12 | CCn1nc(C)c(CNC(=O)C2=C(C)NC(Nc3nc4ccc(F)c(N)c4o3)=NC2c2ccc(C)cc2Cl)c1F (stereo not drawn) [Compound 129, 2-((7-amino-6-fluorobenzo[d]oxazol-2-yl)amino)-4-(2-chloro-4-methylphenyl)-N-((1-ethyl-5-fluoro-3-methyl-1H-pyrazol-4-yl)methyl)-6-methyl-1,4-dihydropyrimidine-5-carboxamide] | 430 | 430 | 2170 | 2170 |  |  |  | 3.55 | 1.53 | 187.9 1 × 10^−6 cm/sec
13 | CCn1cc(CNC(=O)C2=C(C)NC(Nc3nc4ccc(F)c(N)c4o3)=NC2c2ccc(Cl)cc2Cl)cn1 (stereo not drawn) [Compound 130, 2-((7-amino-6-fluorobenzo[d]oxazol-2-yl)amino)-4-(2,4-dichlorophenyl)-N-((1-ethyl-1H-pyrazol-4-yl)methyl)-6-methyl-1,4-dihydropyrimidine-5-carboxamide] |  | 270 |  | 1930 |  |  |  | 6.787 | <1 | 380.3 1 × 10^−6 cm/sec
14 | CC1=C(C(=O)NCc2cnn(CC(F)(F)F)c2)C(c2ccc(C)cc2Cl)N=C(Nc2nc3ccc(F)c(N)c3o2)N1 (stereo not drawn) [Compound 131, 2-((7-amino-6-fluorobenzo[d]oxazol-2-yl)amino)-4-(2-chloro-4-methylphenyl)-6-methyl-N-((1-(2,2,2-trifluoroethyl)-1H-pyrazol-4-yl)methyl)-1,4-dihydropyrimidine-5-carboxamide] | 190 | 190 | 3060 | 3060 |  |  |  | 18.69 | 1.56 | 193.1 1 × 10^−6 cm/sec
15 | CC1=C(C(=O)NCc2cnn(C(C)(C)C)c2)C(c2ccc(C)cc2Cl)N=C(Nc2nc3ccc(F)c(N)c3o2)N1 (stereo not drawn) [Compound 132, 2-((7-amino-6-fluorobenzo[d]oxazol-2-yl)amino)-N-((1-(tert-butyl)-1H-pyrazol-4-yl)methyl)-4-(2-chloro-4-methylphenyl)-6-methyl-1,4-dihydropyrimidine-5-carboxamide] | 770 | 770 | 4320 | 4320 |  |  |  | 14.41 | <1 | 553.2 1 × 10^−6 cm/sec
16 | CCn1ncc(CNC(=O)C2=C(C)NC(Nc3nc4ccc(F)c(N)c4o3)=NC2c2ccc(C)cc2Cl)c1F (stereo not drawn) [Compound 133, 2-((7-amino-6-fluorobenzo[d]oxazol-2-yl)amino)-4-(2-chloro-4-methylphenyl)-N-((1-ethyl-5-fluoro-1H-pyrazol-4-yl)methyl)-6-methyl-1,4-dihydropyrimidine-5-carboxamide] | 110 | 110 | 1090 | 1090 |  |  |  | 7.036 | <1 | 427.4 1 × 10^−6 cm/sec
17 | CCn1cc(CNC(=O)C2=C(C)NC(Nc3nc4ccc(F)c(N)c4o3)=N[C@@H]2c2ccc(C)cc2Cl)cn1 [Compound 134, (S)-2-((7-amino-6-fluorobenzo[d]oxazol-2-yl)amino)-4-(2-chloro-4-methylphenyl)-N-((1-ethyl-1H-pyrazol-4-yl)methyl)-6-methyl-1,4-dihydropyrimidine-5-carboxamide] |  | 1530 |  | 10900 |  |  |  | 8.619 | <1 | 772.8 1 × 10^−6 cm/sec
